From article PMC7253177, “Gain of channel function and modified gating properties in TRPM3 mutants causing intellectual disability and epilepsy” (eLife, 2020)
Substitutions are numbered along the chain they refer to.

Legend:
TRPM3 V990M mutant = target: T1, TRPM3 V990M mutant (Homo sapiens, UniProt Q9HCF6, V1015M); assay: Whole-cell patch clamp, HEK293T cells expressing V990M hTRPM3; format: cell-based; conditions: La3+ 10 µM, PS 40 µM, ±150 mV
T1 construct: expressed in transfected cells; host or cells: HEK293T
T1 sequence (Q9HCF6 1-1325 isoform Q9HCF6-10 V990M): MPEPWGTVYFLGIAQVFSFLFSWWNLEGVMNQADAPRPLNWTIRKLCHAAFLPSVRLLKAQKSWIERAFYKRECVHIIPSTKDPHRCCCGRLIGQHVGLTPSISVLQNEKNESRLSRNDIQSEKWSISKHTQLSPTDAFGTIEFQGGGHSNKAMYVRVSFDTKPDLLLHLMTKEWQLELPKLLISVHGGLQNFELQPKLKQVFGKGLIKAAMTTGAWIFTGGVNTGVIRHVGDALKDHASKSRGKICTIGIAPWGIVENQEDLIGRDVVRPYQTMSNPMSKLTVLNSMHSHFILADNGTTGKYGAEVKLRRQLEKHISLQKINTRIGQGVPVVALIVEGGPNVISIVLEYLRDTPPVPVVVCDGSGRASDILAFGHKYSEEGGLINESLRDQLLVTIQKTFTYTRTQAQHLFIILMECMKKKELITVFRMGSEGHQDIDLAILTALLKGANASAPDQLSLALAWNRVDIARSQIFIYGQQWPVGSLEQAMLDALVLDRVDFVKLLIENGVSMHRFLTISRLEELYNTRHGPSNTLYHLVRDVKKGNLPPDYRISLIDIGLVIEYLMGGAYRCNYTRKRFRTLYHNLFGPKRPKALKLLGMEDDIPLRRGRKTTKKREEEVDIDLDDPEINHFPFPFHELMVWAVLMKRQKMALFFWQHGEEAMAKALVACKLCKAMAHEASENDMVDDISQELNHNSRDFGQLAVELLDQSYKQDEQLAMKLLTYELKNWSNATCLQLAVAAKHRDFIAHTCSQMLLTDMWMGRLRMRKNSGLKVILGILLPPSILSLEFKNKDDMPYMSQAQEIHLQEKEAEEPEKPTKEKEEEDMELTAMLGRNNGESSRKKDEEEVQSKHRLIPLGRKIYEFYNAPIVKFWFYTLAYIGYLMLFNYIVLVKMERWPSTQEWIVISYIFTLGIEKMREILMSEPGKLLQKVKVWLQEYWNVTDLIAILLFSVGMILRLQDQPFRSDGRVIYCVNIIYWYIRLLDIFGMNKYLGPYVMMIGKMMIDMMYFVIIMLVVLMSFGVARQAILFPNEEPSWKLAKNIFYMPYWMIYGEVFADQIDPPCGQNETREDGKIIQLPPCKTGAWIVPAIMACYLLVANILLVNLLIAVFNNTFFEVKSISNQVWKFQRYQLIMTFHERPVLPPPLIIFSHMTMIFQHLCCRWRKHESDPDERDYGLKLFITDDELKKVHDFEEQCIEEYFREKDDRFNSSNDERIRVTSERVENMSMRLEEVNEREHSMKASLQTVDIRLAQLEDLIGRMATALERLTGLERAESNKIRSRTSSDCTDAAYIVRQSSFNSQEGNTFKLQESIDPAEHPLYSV
Protocol: (§1) HEK293T cells ([Graham et al., 1977]) were cultured as described previously ([Vriens et al., 2007]) and used up in passage number 14. HEK293T cells were tested for the lack of mycoplasma and transiently transfected with 2 µg of DNA using TransIT transfection reagent (Mirus) 36–48 hr before the measurements. In case of co-cultures a ratio of 1:1 between hTRPM3-YFP WT and mutants-YFP DNA was used.
All mutants were obtained by the standard PCR overlap extension method using hTRPM3 directly linked to YFP from pCAGGS/IRES-GFP vector ([Vriens et al., 2007]). Accuracy of all mutant sequences was verified by sequencing of the entire DNA constructs.
(§2) Standard whole-cell patch-clamp recordings were performed with an EPC-10 amplifier and the PatchMasterPro Software (HEKA Elektronik, Lambrecht, Germany). Current measurements were performed at a sampling rate of 20 kHz and currents were digitally filtered at 2.9 kHz. In all measurements, 70% of the series resistance was compensated. The standard internal solution contained (in mM): 100 CsAsp, 45 CsCl, 10 EGTA, 10 HEPES, 1 MgCl2 (pH 7.2 with CsOH) or 140 potassium gluconate, 5 EGTA, 1 MgCl2, 10 HEPES and 2 NaATP (pH 7.3 with CsOH) for the measurements of Gβγ mediated inhibition and the standard extracellular solution contained (in mM): 150 NaCl, 1 MgCl2, 10 HEPES (pH 7.4 with NaOH). The standard patch pipette resistance was between 2 MΩ and 4 MΩ when filled with pipette solution. In experiments allowing Ca^2+-dependent desensitization of TRPM3, Mg^2+ was replaced by Ca^2+ in the extracellular solution, and Cs^+ was replaced by Na^+ in the pipette solution. […] The chemical ligands were dissolved in bath solution from a stock diluted in DMSO.

[1] = tested on: V990M hTRPM3 co-transfected with µ-opioid receptors; assay: Whole-cell patch clamp, Gβγ-mediated inhibition of PS-activated currents, cells co-transfected with µ-opioid receptor and V990M TRPM3; format: cell-based, human
Protocol: (§3) TRPM3 activity is inhibited upon activation of G protein-coupled receptors, via a mechanism that involves direct binding of the Gβγ of trimeric G-proteins to the channel ([Badheka et al., 2017]; [Dembla et al., 2017]; [Quallo et al., 2017]).
as §1
(§4) Standard whole-cell patch-clamp recordings were performed with an EPC-10 amplifier and the PatchMasterPro Software (HEKA Elektronik, Lambrecht, Germany). Current measurements were performed at a sampling rate of 20 kHz and currents were digitally filtered at 2.9 kHz. In all measurements, 70% of the series resistance was compensated. The standard internal solution contained (in mM): 100 CsAsp, 45 CsCl, 10 EGTA, 10 HEPES, 1 MgCl2 (pH 7.2 with CsOH) or 140 potassium gluconate, 5 EGTA, 1 MgCl2, 10 HEPES and 2 NaATP (pH 7.3 with CsOH) for the measurements of Gβγ mediated inhibition and the standard extracellular solution contained (in mM): 150 NaCl, 1 MgCl2, 10 HEPES (pH 7.4 with NaOH). […]

WT human TRPM3 = target: T2, WT human TRPM3 (Homo sapiens, UniProt Q9HCF6); assay: Whole-cell patch clamp, HEK293T cells expressing WT hTRPM3; format: cell-based; conditions: cells not co-transfected with the µ-opioid receptor; DAMGO 1 µM, PS 40 µM
T2 construct: expressed in transfected cells; host or cells: HEK293T
T2 sequence (Q9HCF6 1-1325 isoform Q9HCF6-10): T1 sequence (Q9HCF6 1-1325 isoform Q9HCF6-10 V990M) with M990V
Protocol: as §1, §2

[2] = tested on: P1090Q hTRPM3 co-transfected with µ-opioid receptors; assay: Whole-cell patch clamp, Gβγ-mediated inhibition of PS-activated currents, cells co-transfected with µ-opioid receptor and P1090Q TRPM3; format: cell-based, human; conditions: 1 µM DAMGO, PS 40 µM
Protocol: as §3, §1, §4

[3] = tested on: WT hTRPM3 co-transfected with µ-opioid receptors; assay: Whole-cell patch clamp, Gβγ-mediated inhibition of PS-activated currents, cells co-transfected with µ-opioid receptor and WT TRPM3; format: cell-based, human
Protocol: as §3, §1, §4

[4] = n = 5, read-out: IC50, DAMGO concentration for half-maximal inhibition of PS-activated currents

Molecule	Block of the inward component of the PS-activated current (TRPM3 V990M mutant)	Inhibition of PS-activated inward and outward currents ([1]; 1 µM DAMGO, PS 40 µM)	IC50 [1, 4] [nM]	Effect on TRPM3 currents (WT human TRPM3)	Inhibition of PS-activated inward and outward currents [2]	Inhibition of PS-activated inward and outward currents ([3]; 1 µM DAMGO, PS 40 µM)	IC50 [3, 4] [nM]
[La+3] [La^3+, Lanthanum]	resistant to block	–	–	–	–	–	–
[D-Ala^2, N-Me-Phe^4, Gly^5-ol]-enkephalin acetate salt [DAMGO]	–	only partly inhibited	40 ± 10	without effect	complete and rapidly reversible inhibition	complete and rapidly reversible inhibition	4 ± 0.6
